Assays:
[1] = target: PI3Kβ (complex of human p110β and human p85α) (Homo sapiens (Human), UniProt P42338); assay: PI3Kβ kinase assay (HTRF based PI3K inhibition assay); type: biochemical; settings: for IC50: 10 μM ATP, 10 μM PIP2, average value, read-out: average IC50 in the PI3K beta biochemical assay; for PI3K beta average IC50/PI3K alpha average IC50: ratio of beta IC50 to alpha IC50 (isoform balance)
Excerpt: Determination of % Inhibition and IC50 Values of Compounds in PI3Kβ Kinase Assay
PI3Kβ inhibitory activity of compounds of the present invention was quantified employing the HTRF based PI3K inhibition assay as described below.
(§1) Chemicals and Assay Materials
(§2) As reagents for the kinase reaction itself and the quantification of the reaction product, the PI3-Kinase HTRF Assay kit from Millipore (#33-017) was used. With this kit the phosphatidylinositol 3,4,5-trisphosphate (PIP3) generated in the kinase reaction is detected by displacement of a biotinylated ligand from an energy transfer complex consisting of a Europium-labeled anti-GST monoclonal antibody, a GST-tagged PH domain, biotinylated PIP3 and Streptavidin-Allophycocyanin (APC).
For the assay 50 nL of a 80-fold concentrated solution of the test compound in DMSO was pipetted into a black low volume 384-well microtiter plate (Greiner Bio-One, Frickenhausen, Germany), 3 μl of a solution of PI3Kβ and phosphatidylinositol-4,5-bisphosphate (PIP2, 13.8 μM=>final conc. in 4 μl reaction volume=10 μM) in 1× reaction buffer (exact composition not disclosed by the vendor) were added and the mixture was incubated for 15 min at 22° C. to allow pre-binding of the test compounds to the enzyme before the start of the kinase reaction. The amount of PI3Kβ was chosen to have the enzyme reaction in the linear range and depended on the activity of the individual lot, typical concentrations in assay were in the range of 120 ng/mL. Then the kinase reaction was started by the addition of 1 μL of a solution of adenosine triphosphate (ATP, 40 μM=>final conc. in the 4 μl assay volume is 10 μM) in reaction buffer and the resulting mixture was incubated for a reaction time of 20 min at 22° C.
(§3) The reaction was stopped by the addition of 1 μL of an stop solution (containing the biotinylated PIP3 used as a tracer). Then 1 μL detection mix (containing a Europium-labeled anti-GST monoclonal antibody, a GST-tagged PH domain, and Streptavidin-Allophycocyanin) was added and resulting mixture was incubated for 3 h at 22° C. to allow the formation of complexes between the detection reagents and either the PIP3 generated in the kinase reaction, or the biotinylated PIP3 added with the stop solution. Subsequently the amount of energy transfer complex consisting of a Europium-labeled anti-GST monoclonal antibody, a GST-tagged PH domain, biotinylated PIP3 and Streptavidin-Allophycocyanin (APC) was evaluated by measurement of the resonance energy transfer from the Europium-labeled anti-GST monoclonal antibody to the Streptavidin-Allophycocyanin. Therefore, the fluorescence emissions at 620 nm and 665 nm after excitation at 350 nm were measured using a TR-FRET reader, e.g., a Pherastar (BMG Labtechnologies, Offenburg, Germany) or a Viewlux (Perkin-Elmer). The ratio of the emissions at 665 nm and at 622 nm were taken as the measure for the amount of biotinylated PIP3 bound to the GST-tagged PH domain, which is negatively correlated with the amount of PIP3 generated.

[2] = target: PI3Kα (complex of human p110α and human p85α) (Homo sapiens (Human), UniProt P42336); assay: PI3Kα kinase assay (HTRF-based PI3K inhibition assay); settings: 10 μM ATP, 10 μM PIP2; average value; read-out: average IC50 in the PI3K alpha biochemical assay
Excerpt: Determination of % Inhibition and IC50 Values of Compounds in PI3Kα Kinase Assay
PI3Kα inhibitory activity of compounds of the present invention was quantified employing the HTRF-based PI3K inhibition assay as described below.
as §1, §2
The amount of PI3Kα was chosen to have the enzyme reaction in the linear range and depended on the activity of the individual lot, typical concentrations in assay were in the range of 90 ng/mL. […]
as §3, with “tracer), then” for “tracer). Then”, “incubated” for “incubated for”, “Subsequently,” for “Subsequently”, “The ratio of the emissions at 665 nm and at 622 nm were taken as the measure for the amount of biotinylated PIP3 bound to the GST-tagged PH domain, which is negatively correlated with the amount of PIP3 generated.” left out

Chain of PI3Kβ (complex of human p110β and human p85α) (P42338 whole entry, canonical isoform): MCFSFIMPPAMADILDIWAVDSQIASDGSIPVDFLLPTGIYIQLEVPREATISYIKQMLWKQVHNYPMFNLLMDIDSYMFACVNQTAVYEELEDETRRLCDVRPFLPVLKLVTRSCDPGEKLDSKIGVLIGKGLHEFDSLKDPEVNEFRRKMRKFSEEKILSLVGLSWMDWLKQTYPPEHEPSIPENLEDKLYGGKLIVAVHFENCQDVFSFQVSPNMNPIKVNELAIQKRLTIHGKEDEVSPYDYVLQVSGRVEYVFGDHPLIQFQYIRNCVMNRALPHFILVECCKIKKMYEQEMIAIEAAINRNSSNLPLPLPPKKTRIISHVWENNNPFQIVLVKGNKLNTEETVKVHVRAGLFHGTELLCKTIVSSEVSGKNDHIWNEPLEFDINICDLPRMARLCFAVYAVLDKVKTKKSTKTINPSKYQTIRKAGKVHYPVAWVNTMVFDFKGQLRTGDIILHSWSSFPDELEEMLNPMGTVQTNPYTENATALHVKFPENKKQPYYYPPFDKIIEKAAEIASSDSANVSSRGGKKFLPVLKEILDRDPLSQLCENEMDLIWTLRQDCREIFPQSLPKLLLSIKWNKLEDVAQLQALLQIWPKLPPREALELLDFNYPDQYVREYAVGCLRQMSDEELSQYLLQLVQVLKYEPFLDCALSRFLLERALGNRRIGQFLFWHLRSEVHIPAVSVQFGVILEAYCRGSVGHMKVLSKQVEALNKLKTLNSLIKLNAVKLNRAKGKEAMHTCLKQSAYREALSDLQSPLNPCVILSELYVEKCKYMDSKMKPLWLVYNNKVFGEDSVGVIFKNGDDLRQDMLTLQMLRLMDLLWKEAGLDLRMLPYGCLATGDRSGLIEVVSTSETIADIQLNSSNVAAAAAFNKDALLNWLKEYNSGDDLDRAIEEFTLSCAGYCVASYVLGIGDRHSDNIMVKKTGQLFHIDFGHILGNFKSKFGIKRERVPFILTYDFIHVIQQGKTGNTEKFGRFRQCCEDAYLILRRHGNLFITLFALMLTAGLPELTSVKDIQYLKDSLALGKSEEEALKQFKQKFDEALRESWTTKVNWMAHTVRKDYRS
Chain of PI3Kβ (complex of human p110β and human p85α) (P27986 whole entry partner, canonical isoform): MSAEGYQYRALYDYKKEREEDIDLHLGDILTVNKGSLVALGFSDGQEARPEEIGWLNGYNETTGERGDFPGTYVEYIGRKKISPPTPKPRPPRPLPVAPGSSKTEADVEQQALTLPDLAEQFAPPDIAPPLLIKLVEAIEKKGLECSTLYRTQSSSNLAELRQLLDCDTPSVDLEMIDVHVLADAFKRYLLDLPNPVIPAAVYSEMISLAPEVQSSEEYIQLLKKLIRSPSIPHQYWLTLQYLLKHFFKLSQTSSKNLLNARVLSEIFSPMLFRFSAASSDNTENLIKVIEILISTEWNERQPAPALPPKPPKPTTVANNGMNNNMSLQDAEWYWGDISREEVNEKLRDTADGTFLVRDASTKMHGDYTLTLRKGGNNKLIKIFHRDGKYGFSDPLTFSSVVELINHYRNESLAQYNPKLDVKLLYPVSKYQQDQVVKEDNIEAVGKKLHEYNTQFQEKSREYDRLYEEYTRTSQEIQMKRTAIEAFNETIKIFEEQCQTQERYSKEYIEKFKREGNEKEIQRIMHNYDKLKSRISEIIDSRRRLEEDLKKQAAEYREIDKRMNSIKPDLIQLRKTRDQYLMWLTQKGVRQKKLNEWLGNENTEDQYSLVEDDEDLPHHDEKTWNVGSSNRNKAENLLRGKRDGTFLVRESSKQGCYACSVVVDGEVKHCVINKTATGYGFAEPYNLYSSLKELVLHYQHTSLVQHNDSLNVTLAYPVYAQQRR
Chain of PI3Kα (complex of human p110α and human p85α) (P42336 whole entry): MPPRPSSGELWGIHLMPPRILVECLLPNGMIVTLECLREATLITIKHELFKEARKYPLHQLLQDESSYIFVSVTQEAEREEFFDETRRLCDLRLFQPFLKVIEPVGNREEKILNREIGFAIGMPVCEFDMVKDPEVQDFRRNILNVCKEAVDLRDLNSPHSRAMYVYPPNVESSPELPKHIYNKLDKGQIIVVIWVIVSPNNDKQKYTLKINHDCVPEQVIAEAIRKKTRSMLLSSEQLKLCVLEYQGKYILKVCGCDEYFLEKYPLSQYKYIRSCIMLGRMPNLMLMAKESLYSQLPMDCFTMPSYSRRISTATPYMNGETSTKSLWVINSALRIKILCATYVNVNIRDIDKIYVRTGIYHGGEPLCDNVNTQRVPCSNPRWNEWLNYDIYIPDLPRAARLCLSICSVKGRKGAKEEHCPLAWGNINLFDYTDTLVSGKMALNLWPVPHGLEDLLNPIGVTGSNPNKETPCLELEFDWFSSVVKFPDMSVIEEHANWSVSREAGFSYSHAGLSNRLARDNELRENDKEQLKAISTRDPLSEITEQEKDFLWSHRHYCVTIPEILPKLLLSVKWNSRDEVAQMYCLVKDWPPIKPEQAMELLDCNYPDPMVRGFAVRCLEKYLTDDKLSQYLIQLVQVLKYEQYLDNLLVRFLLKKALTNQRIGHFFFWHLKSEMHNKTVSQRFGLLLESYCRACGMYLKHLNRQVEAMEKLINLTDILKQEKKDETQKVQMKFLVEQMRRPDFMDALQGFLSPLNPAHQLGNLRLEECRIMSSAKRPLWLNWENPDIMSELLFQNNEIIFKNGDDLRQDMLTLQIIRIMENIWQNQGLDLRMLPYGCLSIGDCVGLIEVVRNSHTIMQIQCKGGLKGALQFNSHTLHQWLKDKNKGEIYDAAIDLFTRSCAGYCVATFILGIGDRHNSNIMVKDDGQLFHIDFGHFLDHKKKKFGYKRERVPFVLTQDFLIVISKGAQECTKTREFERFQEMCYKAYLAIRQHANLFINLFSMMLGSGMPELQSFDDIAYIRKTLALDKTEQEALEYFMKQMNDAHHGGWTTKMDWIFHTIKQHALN
Chain of PI3Kα (complex of human p110α and human p85α) (P27986 whole entry partner): as the sequence (P27986 whole entry partner, canonical isoform) above

| IC50 [1] [µM] | PI3K beta average IC50/PI3K alpha average IC50 [1] | IC50 [2] [µM] | Compound |
| --- | --- | --- | --- |
| < 0.01 | 5.40 | < 0.01 | COc1c(OC[C@@H](O)CN[C@@H](C)c2ccccc2)ccc2c1N=C(NC(=O)c1cnc(N)nc1)N1CCN=C21 (relative stereo) [Example 5, rel-2-Amino-N-(8-{[(2R)-2-hydroxy-3-{[(1R)-1-phenylethyl]amino}propyl]oxy}-7-methoxy-2,3-dihydroimidazo[1,2-c]quinazolin-5-yl)pyrimidine-5-carboxamide] |
| < 0.01 | 7.01 | < 0.01 | COc1c(OC[C@@H](O)CN[C@@H](C)c2ccccc2)ccc2c1N=C(NC(=O)c1cnc(N)nc1)N1CCN=C21 [Example 6, 2-Amino-N-(8-{[(2S)-2-hydroxy-3-{[(1S)-1-phenylethyl]amino}propyl]oxy}-7-methoxy-2,3-dihydroimidazo[1,2-c]quinazolin-5-yl)pyrimidine-5-carboxamide] |
| < 0.01 | 3.44 | < 0.01 | COc1c(OC[C@H](O)CN[C@@H](C)c2ccccc2)ccc2c1N=C(NC(=O)c1cnc(N)nc1)N1CCN=C21 [Example 7, 2-Amino-N-(8-{[(2R)-2-hydroxy-3-{[(1S)-1-phenylethyl]amino}propyl]oxy}-7-methoxy-2,3-dihydroimidazo[1,2-c]quinazolin-5-yl)pyrimidine-5-carboxamide] |

— US9675616B2, “Arylaminoalcohol-substituted 2,3-dihydroimidazo[1,2-C]quinolines” (BAYER INTELLECTUAL PROPERTY GMBH, priority 2010, dated 2017)
